Test results published in US20240245658A1, “TAAR1 AND SEROTONIN MODULATORS, AND PHARMACEUTICAL COMPOSITIONS, AND METHODS OF USE THEREOF” (Sunovion Pharmaceuticals Inc., priority 2021, published 2024).
pEC50, pIC50: −log10 of the molar value. Like-named read-outs stand apart in the source and are kept apart here.

Assays:
Assay type in all cases: cell-based
human TAAR1 receptors = molecular target: T1, human TAAR1 receptors (Homo sapiens, UniProt Q96RJ0); experiment: TAAR1 Agonism Assay: cAMP HTRF assay for Gs coupled receptor TAAR1 (Euroscreen FAST-0987C); settings: CHO-K1 cells expressing human TAAR1, cAMP HTRF
T1 construct: host or cells: CHO-K1
T1 sequence (Q96RJ0 1-339): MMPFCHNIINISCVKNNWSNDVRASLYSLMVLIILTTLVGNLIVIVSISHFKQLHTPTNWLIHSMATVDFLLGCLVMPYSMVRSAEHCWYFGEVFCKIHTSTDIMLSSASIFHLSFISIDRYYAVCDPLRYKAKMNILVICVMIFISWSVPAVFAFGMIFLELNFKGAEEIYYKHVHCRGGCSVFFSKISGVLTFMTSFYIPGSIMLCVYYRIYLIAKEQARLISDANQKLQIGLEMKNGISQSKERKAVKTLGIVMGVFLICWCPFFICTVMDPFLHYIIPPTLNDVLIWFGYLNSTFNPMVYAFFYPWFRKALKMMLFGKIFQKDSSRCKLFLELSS
Description: Dose response curves were performed in parallel with the reference compound, tyramine.
For the TAAR1 agonist test (performed in a 384 well plate): 5 μl of cells (about 3,000 cells) were mixed with 5 μl of the test compound diluted in assay buffer and then incubated for about 30 minutes at about room temperature. After addition of the lysis buffer containing cAMP-d2 and anti-cAMP cryptate detection reagents, plates were incubated for about a 1-hour incubation at about room temperature, and fluorescence ratios were measured according to the manufacturer specifications, with the HTRF (Homogeneous Time Resolved Fluorescence) kit (cAMP Gs dynamic kit, Cisbio Bioassays, 62AM4PEJ).
(§1) Compounds were tested at the following nanomolar concentrations, in duplicate: 0.3 nM, 1 nM, 3 nM, 10 nM, 30 nM, 100 nM, 300 nM, 1,000 nM, 3,000 nM, and 10,000 nM.

human 5-HT2A receptor = molecular target: T2, human 5-HT2A receptor (Homo sapiens, UniProt P28223); experiment: 5HT2A Antagonism Assay (Euroscreen FAST-05051), IP-One HTRF
T2 construct: host or cells: CHO-K1
T2 sequence (P28223 whole entry): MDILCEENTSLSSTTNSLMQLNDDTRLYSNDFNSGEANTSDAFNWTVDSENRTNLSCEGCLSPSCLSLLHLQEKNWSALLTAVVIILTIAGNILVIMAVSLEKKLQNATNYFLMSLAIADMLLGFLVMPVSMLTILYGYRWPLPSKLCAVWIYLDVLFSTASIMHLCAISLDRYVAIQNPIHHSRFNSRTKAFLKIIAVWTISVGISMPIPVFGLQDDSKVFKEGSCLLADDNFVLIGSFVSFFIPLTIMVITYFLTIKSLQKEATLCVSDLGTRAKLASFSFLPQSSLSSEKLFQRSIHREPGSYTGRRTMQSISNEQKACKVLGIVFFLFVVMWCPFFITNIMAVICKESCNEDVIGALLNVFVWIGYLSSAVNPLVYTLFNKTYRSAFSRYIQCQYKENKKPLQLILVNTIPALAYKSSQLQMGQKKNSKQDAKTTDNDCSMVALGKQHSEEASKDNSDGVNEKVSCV
Description: 5HT2A Antagonism Assay Protocol (Euroscreen FAST-05051)
CHO-K1 cells expressing the human 5-HT2A receptor grown to mid-log phase in culture media without antibiotics, were detached with PBS-EDTA, centrifuged, and resuspended in the IP-One Gq kit (Cisbio Bioassays, 62IPAPEC) stimulation buffer.
For antagonist testing in a 384 well plate: 5 μl of cells (20,000 cells) were mixed with 5 μl of a mix of test compound and reference agonist (for a final assay concentration corresponding to its EC80) diluted in stimulation buffer. The plate was incubated for 60 minutes at 37° C. in a humidified atmosphere of 95% air with 5% CO2, then 5 μL of IP1-d2 and anti-IP1 cryptate detection reagents were added to each well, the plates were incubated for about 1 hour at about room temperature. Fluorescence ratios are measured according to the manufacturer's specification (IP-One Gq kit (Cisbio Bioassays, 62IPAPEC).
Dose response curves were performed in parallel with reference compounds (e.g., α-methyl-5-HT. Compounds were tested at the following nanomolar concentrations, in duplicate: 0.3 nM, 1 nM, 3 nM, 10 nM, 30 nM, 100 nM, 300 nM, 1,000 nM, 3,000 nM, and 10,000 nM

human 5-HT7 receptor = molecular target: T3, human 5-HT7 receptor (Homo sapiens, UniProt P34969); experiment: 5HT7 Antagonism Assay (Euroscreen FAST-0499C), cAMP HTRF; settings: CHO-K1 cells expressing human 5-HT7, reference agonist at EC80, cAMP HTRF
T3 construct: host or cells: CHO-K1
T3 sequence (P34969 whole entry): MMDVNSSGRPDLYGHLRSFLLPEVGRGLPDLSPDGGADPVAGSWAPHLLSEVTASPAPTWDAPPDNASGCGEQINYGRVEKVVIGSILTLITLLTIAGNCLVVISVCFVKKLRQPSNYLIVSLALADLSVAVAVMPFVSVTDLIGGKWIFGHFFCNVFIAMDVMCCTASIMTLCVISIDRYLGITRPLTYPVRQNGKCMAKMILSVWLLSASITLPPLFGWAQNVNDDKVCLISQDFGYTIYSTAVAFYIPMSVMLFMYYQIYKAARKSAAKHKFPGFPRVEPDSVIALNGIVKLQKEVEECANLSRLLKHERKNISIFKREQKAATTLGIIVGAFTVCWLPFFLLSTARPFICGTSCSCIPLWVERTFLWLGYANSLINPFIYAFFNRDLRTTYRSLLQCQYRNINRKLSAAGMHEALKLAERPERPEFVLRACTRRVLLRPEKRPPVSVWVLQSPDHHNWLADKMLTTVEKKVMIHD
Description: 5HT7 Antagonism Assay Protocol (Euroscreen FAST-0499C)
CHO-K1 cells expressing the human 5-HT7 receptor, grown prior to the test in media without antibiotic, were detached by gentle flushing with PBS-EDTA (5 mM EDTA), recovered by centrifugation and resuspended in assay buffer (Krebs-Ringer HEPES buffer: 5 mM KCl, 1.25 mM MgSO4, 124 mM NaCl, 25 mM HEPES, 13.3 mM Glucose, 1.25 mM KH2PO4, 1.45 mM CaCl2), 0.5 g/l BSA, supplemented with 1 mM IBMX).
Dose response curves were performed in parallel with reference compounds (e.g., 5-carboxamidotryptamine (5-CT)).
For antagonist testing in a 384 well plate: 5 μl of cells (3000 cells) were mixed with 5 μl of a mix of test compound and reference agonist (for a final assay concentration corresponding to its EC80) diluted in assay buffer. The plates were then incubated for about 30 minutes at about room temperature. After addition of the lysis buffer containing cAMP-d2 and anti-cAMP cryptate detection reagents, plates were incubated for about 1 hour at about room temperature, and fluorescence ratios were measured according to the manufacturer's specifications (HTRF kit: cAMP Gs dynamic kit, Cisbio Bioassays, 62AM4PEJ).
as §1

[1] = read-out: 5-HT2A (IC50), CHO-K1 cells expressing human 5-HT2A, reference agonist at EC80, IP-One
[2] = 5-HT2A (IC50), CHO-K1 cells expressing human 5-HT2A, reference agonist at EC80, IP-One
[3] = CHO-K1 cells expressing human 5-HT2A, reference agonist at EC80, IP-One, read-out: 5-HT2A (IC50)

Structure (SMILES) | pEC50 (human TAAR1 receptors) | pIC50 (human 5-HT2A receptor; [1]) | pIC50 (human 5-HT7 receptor) | pIC50 (human 5-HT2A receptor; [2]) | pIC50 (human 5-HT2A receptor; [3])
CNCC1Cc2ccccc2Oc2cc(F)ccc21 (single isomer, unassigned) [Compound 4, (S*)-1-(7-fluoro-10,11-dihydrodibenzo[b,f]oxepin-10-yl)-N-methylmethanamine] | > 6.00 | > 6.00 | 5.00 to 6.00 | – | –
CNCC1Cc2ccccc2Oc2cccnc21 (single isomer, unassigned) [Compound 5, (S*)-1-(10,11-dihydrobenzo[6,7]oxepino[3,2-b]pyridin-11-yl)-N-methylmethanamine] | > 6.00 | – | > 6.00 | > 6.00 | –
CNCC1Cc2ccccc2Oc2cccnc21 (single isomer, unassigned) [Compound 6, (R*)-1-(10,11-dihydrobenzo-[6,7]oxepino[3,2-b]pyridin-11-yl)-N-methylmethanamine] | > 6.00 | – | ≤ 5.00 | 5.00 to 6.00 | –
NCC1Cc2ccccc2Oc2cccnc21 (single isomer, unassigned) [Compound 7, (S*)-(10,11-dihydrobenzo[6,7]oxepino[3,2-b]pyridin-11-yl)methanamine] | > 6.00 | – | 5.00 to 6.00 | < 5.00 | –
NCC1Cc2ccccc2Oc2cccnc21 (single isomer, unassigned) [Compound 8, (R*)-(10,11-dihydrobenzo[6,7]oxepino[3,2-b]pyridin-11-yl)methanamine] | > 6.00 | < 5.00 | ≤ 5.00 | – | –
NCC1Cc2cccnc2Oc2ccccc21 (single isomer, unassigned) [Compound 17, (R*)-(5,6-dihydrobenzo[6,7]oxepino[2,3-b]pyridin-6-yl)methanamine] | > 6.00 | – | ≤ 5.00 | > 6.00 | –
NCC1Cc2cccnc2Oc2ccccc21 (single isomer, unassigned) [Compound 18, (S*)-(5,6-dihydrobenzo[6,7]oxepino[2,3-b]pyridin-6-yl)methanamine] | < 5.00 | – | ≤ 5.00 | < 5.00 | –
CNCC1Cc2cccnc2Oc2ccccc21 (single isomer, unassigned) [Compound 19, (R*)-1-(5,6-dihydrobenzo[6,7]oxepino[2,3-b]pyridin-6-yl)-N-methylmethanamine] | 5.00 to 6.00 | – | ≤ 5.00 | – | 5.00 to 6.00
CNCC1Cc2cccnc2Oc2ccccc21 (single isomer, unassigned) [Compound 20, (S*)-1-(5,6-dihydrobenzo[6,7]oxepino[2,3-b]pyridin-6-yl)-N-methylmethanamine] | < 5.00 | – | ≤ 5.00 | – | < 5.00
NCC1Cc2ccncc2Oc2ccccc21 (single isomer, unassigned) [Compound 21, (R*)-(5,6-dihydrobenzo[6,7]oxepino[2,3-c]pyridin-6-yl)methanamine] | > 6.00 | – | ≤ 5.00 | 5.00 to 6.00 | –
NCC1Cc2ccncc2Oc2ccccc21 (single isomer, unassigned) [Compound 22, (S*)-(5,6-dihydrobenzo[6,7]oxepino[2,3-c]pyridin-6-yl)methanamine] | 5.00 to 6.00 | 5.00 to 6.00 | ≤ 5.00 | – | –
CNCC1Cc2ccncc2Oc2ccccc21 (single isomer, unassigned) [Compound 23, (R*)-1-(5,6-dihydrobenzo[6,7]oxepino[2,3-c]pyridin-6-yl)-N-methylmethanamine] | > 6.00 | – | > 6.00 | > 6.00 | –
CNCC1Cc2ccncc2Oc2ccccc21 (single isomer, unassigned) [Compound 24, (S*)-1-(5,6-dihydrobenzo[6,7]oxepino[2,3-c]pyridin-6-yl)-N-methylmethanamine] | < 5.00 | > 6.00 | 5.00 to 6.00 | – | –
NCC1Cc2ncccc2Oc2ccccc21 (single isomer, unassigned) [Compound 29, (R*)-(10,11-dihydrobenzo[6,7]oxepino[3,2-b]pyridin-10-yl)methanamine] | 5.00 to 6.00 | – | ≤ 5.00 | 5.00 to 6.00 | –
NCC1Cc2ncccc2Oc2ccccc21 (single isomer, unassigned) [Compound 30, (S*)-(10,11-dihydrobenzo[6,7]oxepino[3,2-b]pyridin-10-yl)methanamine] | > 6.00 | 5.00 to 6.00 | ≤ 5.00 | – | –
CNCC1Cc2ncccc2Oc2ccccc21 (single isomer, unassigned) [Compound 31, (R*)-1-(10,11-dihydrobenzo[6,7]oxepino[3,2-b]pyridin-10-yl)-N-methylmethanamine] | < 5.00 | – | ≤ 5.00 | > 6.00 | –
CNCC1Cc2ncccc2Oc2ccccc21 (single isomer, unassigned) [Compound 32, (S*)-1-(10,11-dihydrobenzo[6,7]oxepino[3,2-b]pyridin-10-yl)-N-methylmethanamine] | > 6.00 | > 6.00 | ≤ 5.00 | – | –
NCC1Cc2ncccc2Oc2cc(F)ccc21 (single isomer, unassigned) [Compound 36, (S*)-(7-fluoro-10,11-dihydrobenzo[6,7]oxepino[3,2-b]pyridin-10-yl)methanamine] | > 6.00 | – | ≤ 5.00 | > 6.00 | –
CNC[C@H]1Cc2ncc(F)cc2Oc2ccccc21 (single isomer, unassigned) [Compound 38, (S*)-1-(3-fluoro-10,11-dihydrobenzo[6,7]oxepino[3,2-b]pyridin-10-yl)-N-methylmethanamine] | 5.00 to 6.00 | – | 5.00 to 6.00 | – | > 6.00
NCC1Cc2ncc(F)cc2Oc2ccccc21 (single isomer, unassigned) [Compound 39, (R*)-(3-fluoro-10,11-dihydrobenzo[6,7]oxepino[3,2-b]pyridin-10-yl)methanamine] | 5.00 to 6.00 | – | ≤ 5.00 | > 6.00 | –
NCC1Cc2ncc(F)cc2Oc2ccccc21 (single isomer, unassigned) [Compound 40, (S*)-(3-fluoro-10,11-dihydrobenzo[6,7]oxepino[3,2-b]pyridin-10-yl)methanamine] | > 6.00 | > 6.00 | ≤ 5.00 | – | –
NCC1Oc2ccc(F)cc2Oc2ccccc21 (single isomer, unassigned) [Compound 41, (R*)-(7-fluoro-11H-dibenzo[b,e][1,4]dioxepin-11-yl)methanamine] | > 6.00 | – | 5.00 to 6.00 | > 6.00 | –
NCC1Oc2ccc(F)cc2Oc2ccccc21 (single isomer, unassigned) [Compound 42, (S*)-(7-fluoro-11H-dibenzo[b,e][1,4]dioxepin-11-yl)methanamine] | > 6.00 | > 6.00 | ≤ 5.00 | – | –
CNCC1Oc2ccc(F)cc2Oc2ccccc21 (single isomer, unassigned) [Compound 43, (R*)-1-(7-fluoro-11H-dibenzo[b,e][1,4]dioxepin-11-yl)-N-methylmethanamine] | > 6.00 | – | > 6.00 | > 6.00 | –
